Measurements reported in PubChem BioAssay (NCI).
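Compound exposure: 48 hours, 5 concentrations, 96-well plates. At the GI50, growth is halved. Definition used: TGI = concentration required for complete inhibition of growth.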

How the values were obtained:
Experiment in all cases: DTP human tumour cell line panel, 48 h
786-0 renal = tested on: 786-0 renal
NCI-H23 lung = tested on: NCI-H23 lung
MALME-3M melanoma = tested on: MALME-3M melanoma
UACC-62 melanoma = tested on: UACC-62 melanoma
SF-539 CNS = tested on: SF-539 CNS
A498 renal = tested on: A498 renal
SNB-19 CNS = tested on: SNB-19 CNS
K-562 leukemia = tested on: K-562 leukemia
SK-MEL-2 melanoma = tested on: SK-MEL-2 melanoma
HS 578T breast = tested on: HS 578T breast
HOP-92 NSCLC = tested on: HOP-92 NSCLC
COLO 205 colon = tested on: COLO 205 colon
DU-145 prostate = tested on: DU-145 prostate
EKVX NSCLC = tested on: EKVX NSCLC
M14 melanoma = tested on: M14 melanoma
MDA-MB-435 = tested on: MDA-MB-435
SF-268 CNS = tested on: SF-268 CNS
UO-31 renal = tested on: UO-31 renal
PC-3 prostate = tested on: PC-3 prostate
OVCAR-8 ovarian = tested on: OVCAR-8 ovarian
NCI-H522 lung = tested on: NCI-H522 lung
T-47D breast = tested on: T-47D breast
CCRF-CEM leukemia = tested on: CCRF-CEM leukemia
SK-MEL-5 melanoma = tested on: SK-MEL-5 melanoma
OVCAR-3 ovarian = tested on: OVCAR-3 ovarian
NCI/ADR-RES ovarian = tested on: NCI/ADR-RES ovarian
RXF 393 renal = tested on: RXF 393 renal
KM12 colon = tested on: KM12 colon
TK-10 renal = tested on: TK-10 renal
HCT-15 colon = tested on: HCT-15 colon
NCI-H460 lung = tested on: NCI-H460 lung
MCF7 breast = tested on: MCF7 breast
SW-620 colon = tested on: SW-620 colon
ACHN renal = tested on: ACHN renal
SN12C renal = tested on: SN12C renal
OVCAR-4 ovarian = tested on: OVCAR-4 ovarian
IGROV1 ovarian = tested on: IGROV1 ovarian
MOLT-4 leukemia = tested on: MOLT-4 leukemia
SNB-75 CNS = tested on: SNB-75 CNS
LOX IMVI melanoma = tested on: LOX IMVI melanoma
OVCAR-5 ovarian = tested on: OVCAR-5 ovarian
UACC-257 melanoma = tested on: UACC-257 melanoma
SR leukemia = tested on: SR leukemia
HCT-116 colon = tested on: HCT-116 colon
BT-549 breast = tested on: BT-549 breast
CAKI-1 renal = tested on: CAKI-1 renal
HOP-62 NSCLC = tested on: HOP-62 NSCLC
MDA-MB-231 breast = tested on: MDA-MB-231 breast
SK-MEL-28 melanoma = tested on: SK-MEL-28 melanoma
NCI-H226 lung = tested on: NCI-H226 lung
A549 NSCLC = tested on: A549 NSCLC
U251 CNS = tested on: U251 CNS
SF-295 CNS = tested on: SF-295 CNS
RPMI-8226 leukemia = tested on: RPMI-8226 leukemia
HT29 colon = tested on: HT29 colon

Compound: COc1cc2c(/C=C3\C(=O)N(C)c4ccc(O)cc43)c[nH]c2cc1C
- GI50 (786-0 renal): 3.95 µM
- TGI (786-0 renal): 21 µM
- GI50 (NCI-H23 lung): 8.77 µM
- TGI (NCI-H23 lung): 38.2 µM
- GI50 (MALME-3M melanoma): 2440 nM
- TGI (MALME-3M melanoma): 7.08 µM
- GI50 (UACC-62 melanoma): 9.73 µM
- TGI (UACC-62 melanoma): 30.3 µM
- GI50 (SF-539 CNS): 1560 nM
- TGI (SF-539 CNS): 3.74 µM
- GI50 (A498 renal): 20.8 µM
- TGI (A498 renal): 39.6 µM
- GI50 (SNB-19 CNS): 6.16 µM
- TGI (SNB-19 CNS): 52.9 µM
- GI50 (K-562 leukemia): 4.67 µM
- TGI (K-562 leukemia): > 100 µM
- GI50 (SK-MEL-2 melanoma): 2120 nM
- TGI (SK-MEL-2 melanoma): 6.33 µM
- GI50 (HS 578T breast): 4.33 µM
- TGI (HS 578T breast): > 100 µM
- GI50 (HOP-92 NSCLC): 14.3 µM
- TGI (HOP-92 NSCLC): 34.3 µM
- GI50 (COLO 205 colon): 3.7 µM
- TGI (COLO 205 colon): 16.8 µM
- GI50 (DU-145 prostate): 3.56 µM
- TGI (DU-145 prostate): 16.1 µM
- GI50 (EKVX NSCLC): 4.58 µM
- TGI (EKVX NSCLC): 24.1 µM
- GI50 (M14 melanoma): 2900 nM
- TGI (M14 melanoma): 8.4 µM
- GI50 (MDA-MB-435): 373 nM
- TGI (MDA-MB-435): 1500 nM
- GI50 (SF-268 CNS): 5.29 µM
- TGI (SF-268 CNS): 46.4 µM
- GI50 (UO-31 renal): 3.07 µM
- TGI (UO-31 renal): 12.6 µM
- GI50 (PC-3 prostate): 3.5 µM
- TGI (PC-3 prostate): 15.6 µM
- GI50 (OVCAR-8 ovarian): 3.38 µM
- TGI (OVCAR-8 ovarian): 14.5 µM
- GI50 (NCI-H522 lung): 1470 nM
- TGI (NCI-H522 lung): 5.2 µM
- GI50 (T-47D breast): 4.05 µM
- TGI (T-47D breast): 39.7 µM
- GI50 (CCRF-CEM leukemia): 3.35 µM
- TGI (CCRF-CEM leukemia): 35.9 µM
- GI50 (SK-MEL-5 melanoma): 3.87 µM
- TGI (SK-MEL-5 melanoma): 13.2 µM
- GI50 (OVCAR-3 ovarian): 3.86 µM
- TGI (OVCAR-3 ovarian): 22.6 µM
- GI50 (NCI/ADR-RES ovarian): 4.17 µM
- TGI (NCI/ADR-RES ovarian): 25.9 µM
- GI50 (RXF 393 renal): 4.89 µM
- TGI (RXF 393 renal): 45.2 µM
- GI50 (KM12 colon): 854 nM
- TGI (KM12 colon): 3.52 µM
- GI50 (TK-10 renal): 6.04 µM
- TGI (TK-10 renal): 32.6 µM
- GI50 (HCT-15 colon): 4.75 µM
- TGI (HCT-15 colon): 67.8 µM
- GI50 (NCI-H460 lung): 2620 nM
- TGI (NCI-H460 lung): 7.79 µM
- GI50 (MCF7 breast): 2280 nM
- TGI (MCF7 breast): 7.35 µM
- GI50 (SW-620 colon): 3.83 µM
- TGI (SW-620 colon): 34 µM
- GI50 (ACHN renal): 3.42 µM
- TGI (ACHN renal): 26.6 µM
- GI50 (SN12C renal): 14.6 µM
- TGI (SN12C renal): 47.2 µM
- GI50 (OVCAR-4 ovarian): 5.3 µM
- TGI (OVCAR-4 ovarian): > 100 µM
- GI50 (IGROV1 ovarian): 3.7 µM
- TGI (IGROV1 ovarian): 22.3 µM
- GI50 (MOLT-4 leukemia): 3.3 µM
- TGI (MOLT-4 leukemia): 10.6 µM
- GI50 (SNB-75 CNS): 5.7 µM
- TGI (SNB-75 CNS): 37 µM
- GI50 (LOX IMVI melanoma): 2360 nM
- TGI (LOX IMVI melanoma): > 100 µM
- GI50 (OVCAR-5 ovarian): 22 µM
- TGI (OVCAR-5 ovarian): 42.5 µM
- GI50 (UACC-257 melanoma): 2540 nM
- TGI (UACC-257 melanoma): 7.01 µM
- GI50 (SR leukemia): 2880 nM
- TGI (SR leukemia): > 100 µM
- GI50 (HCT-116 colon): 3.16 µM
- TGI (HCT-116 colon): 16 µM
- GI50 (BT-549 breast): 1860 nM
- TGI (BT-549 breast): 5.44 µM
- GI50 (CAKI-1 renal): 3.79 µM
- TGI (CAKI-1 renal): 22.2 µM
- GI50 (HOP-62 NSCLC): 5.98 µM
- TGI (HOP-62 NSCLC): 20.1 µM
- GI50 (MDA-MB-231 breast): 10.9 µM
- TGI (MDA-MB-231 breast): 44.5 µM
- GI50 (SK-MEL-28 melanoma): 2990 nM
- TGI (SK-MEL-28 melanoma): 28.1 µM
- GI50 (NCI-H226 lung): 31.1 µM
- TGI (NCI-H226 lung): 75.4 µM
- GI50 (A549 NSCLC): 3.05 µM
- TGI (A549 NSCLC): 18.1 µM
- GI50 (U251 CNS): 3.35 µM
- TGI (U251 CNS): 32.2 µM
- GI50 (SF-295 CNS): 2640 nM
- TGI (SF-295 CNS): 17.3 µM
- GI50 (RPMI-8226 leukemia): 3.54 µM
- TGI (RPMI-8226 leukemia): 17.2 µM
- GI50 (HT29 colon): 3.67 µM
- TGI (HT29 colon): > 100 µM
